Experimental data from US20130303533A1, “AZOLOPYRIDINE AND AZOLOPYRIMIDINE COMPOUNDS AND METHODS OF USE THEREOF” (AMBIT BIOSCIENCES CORPORATION, priority 2010, published 2013).
pIC50, pKd: −log10 of the molar value.

Columns and labels:
TYK2 = target: T1, TYK2 (Homo sapiens, UniProt P29597); assay: Competition binding assay to determine binding constants (Kd), TYK2
T1 construct: made in house; host or cells: T7 phage display or HEK-293 cells (alternatives)
Description: (§1) Competition Binding Assay to Determine Binding Constants (Kd) of the Compounds Against JAK Kinases
(§2) Competition binding assays used herein were developed, validated and performed as described in Fabian et al., Nature Biotechnology 2005, 23, 329-336. Kinases were produced as fusions to T7 phage (See, Fabian et al. or WO04/015142) or alternatively, the kinases were expressed in HEK-293 cells and subsequently tagged with DNA for PCR detection (See, WO08/005,310). For the binding assays, streptavidin-coated magnetic beads were treated with biotinylated affinity ligands for 30 min at rt to generate affinity resins. The liganded beads were blocked with excess biotin and washed with blocking buffer (SeaBlock (Pierce), 1% BSA, 0.05% Tween 20, 1 mM DTT) to remove unbound ligand and to reduce non-specific binding. Binding reactions were assembled by combining kinase, liganded affinity beads, and test compounds in 1× binding buffer (20% SeaBlock, 0.17×PBS, 0.05% Tween 20, 6 mM DTT). Test compounds were prepared as 100× stocks in DMSO and rapidly diluted into the aqueous environment. DMSO was added to control assays lacking a test compound. Primary screen interactions were performed in polypropylene 384-well plates in a final volume of 34 μL, while Kd determinations were performed in polystyrene 96-well plates in a final volume of 135 μL. The assay plates were incubated at room temperature with shaking for 1 hour, long enough for binding reactions to reach equilibrium, and the affinity beads were washed extensively with wash buffer (1×PBS, 0.05% Tween 20) to remove unbound protein. The beads were then resuspended in elution buffer (1×PBS, 0.05% Tween 20, 2 μM non-biotinylated affinity ligand) and incubated at room temperature with shaking for 30 min. The kinase concentration in the eluates was measured by quantitative PCR. Each kinase was tested individually against each compound. Kds were determined using eleven serial threefold dilutions. A selectivity score, which is a quantitative measure of selectivity of a compound against a panel of enzymes, may be calculated for a compound by dividing the number of enzymes for which a compound meets a set criteria, (for example, a binding constant of 100 nM or less), by the total number of enzymes tested.

[1] = system: GM-CSFR/JAK2/STAT5 pathway; assay: CSTF-1 cell-based reporter assay; details: Homo sapiens; csTF-1 cells, GM-CSF at 2 ng/mL, 4 hours, beta-lactamase reporter; read-out: Cell Assay: CS TF-1 reporter assay IC50
Method: CSTF-1 Cell-Based Reporter Assay
CSTF-1 cells are derived from the human erythroleukemia cell line that is growth dependent on GM-CSF and has an intact GM-CSFR/JAK2/STAT5 pathway. The cell line contains stably integrated beta-lactamase reporter gene under the control of the […] (irf 1) response element recognized by the activated transcription factor STAT5. csTF-1 cells (Invitrogen K1219) were washed with assay media (97% OPTIMEM/0.5% dialyzed FBS/0.1 mM NEAA/1 mM Na pyr/P/S) and seeded in the same media at 5×10^5 cell/mL in T150 flask. After 16 hour incubation, cells were seeded at 2×10^5 cell/well in 50 μl volume, into Costar, clear bottom, 96-well assay plates. Serial dilutions of compounds were added to the plates with final DMSO concentration at 0.5% and GM-CSF at 2 ng/mL and the plates were then incubated at 30° C. and 5% CO2 for 4 hours. The plates were brought to room temperature before adding Substrate Mixture according to manufacturer's protocol (Invitrogen, Catalog #K1085). The assay plates containing the substrate mixture were incubated in the dark at room temperature for 2 hours. Blue and green fluorescence was measured with excitation at 409 nm and emission at 460 nm (for blue) and excitation at 409 nm and emission at 530 nm (for green) using Spectra Max Gemini EM.

JAK2 = target: T2, JAK2 (Homo sapiens, UniProt O60674); assay: Competition binding assay to determine binding constants (Kd), JAK2
T2 construct: made in house; host or cells: T7 phage display or HEK-293 cells (alternatives)
T2 sequence (O60674 whole entry): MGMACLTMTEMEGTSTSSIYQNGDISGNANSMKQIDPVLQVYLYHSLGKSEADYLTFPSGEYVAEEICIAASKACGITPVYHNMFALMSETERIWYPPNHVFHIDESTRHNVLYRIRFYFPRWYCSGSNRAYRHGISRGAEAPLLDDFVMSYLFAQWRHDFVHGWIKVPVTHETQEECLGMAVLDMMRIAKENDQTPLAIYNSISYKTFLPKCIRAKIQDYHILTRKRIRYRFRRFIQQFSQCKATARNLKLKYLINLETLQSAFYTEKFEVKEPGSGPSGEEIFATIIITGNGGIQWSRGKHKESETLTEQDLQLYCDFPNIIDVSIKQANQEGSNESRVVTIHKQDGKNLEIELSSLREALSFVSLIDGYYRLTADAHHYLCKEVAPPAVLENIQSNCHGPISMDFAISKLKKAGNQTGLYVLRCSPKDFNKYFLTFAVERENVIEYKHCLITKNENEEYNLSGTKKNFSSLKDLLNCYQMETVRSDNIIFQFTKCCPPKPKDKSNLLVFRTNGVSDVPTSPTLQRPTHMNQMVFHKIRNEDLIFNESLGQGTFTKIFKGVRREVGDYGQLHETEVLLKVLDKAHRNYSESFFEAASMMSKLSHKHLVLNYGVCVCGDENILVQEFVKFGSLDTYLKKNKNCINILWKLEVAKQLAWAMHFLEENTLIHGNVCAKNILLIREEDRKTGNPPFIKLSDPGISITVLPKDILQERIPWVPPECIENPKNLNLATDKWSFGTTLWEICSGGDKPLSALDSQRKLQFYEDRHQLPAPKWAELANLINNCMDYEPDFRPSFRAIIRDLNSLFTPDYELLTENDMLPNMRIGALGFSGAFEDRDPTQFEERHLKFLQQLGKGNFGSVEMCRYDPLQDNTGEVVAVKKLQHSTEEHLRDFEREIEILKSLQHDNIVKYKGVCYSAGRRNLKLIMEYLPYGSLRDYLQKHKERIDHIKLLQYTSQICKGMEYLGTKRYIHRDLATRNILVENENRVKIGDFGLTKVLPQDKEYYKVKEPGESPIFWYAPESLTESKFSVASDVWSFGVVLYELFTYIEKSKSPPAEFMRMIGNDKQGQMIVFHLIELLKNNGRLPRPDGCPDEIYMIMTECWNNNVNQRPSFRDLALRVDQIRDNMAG
Description: as §1, §2

JAK3 = target: T3, JAK3 (Homo sapiens, UniProt P52333); assay: Competition binding assay to determine binding constants (Kd), JAK3
T3 construct: made in house; host or cells: T7 phage display or HEK-293 cells (alternatives)
T3 sequence (P52333 1-1124): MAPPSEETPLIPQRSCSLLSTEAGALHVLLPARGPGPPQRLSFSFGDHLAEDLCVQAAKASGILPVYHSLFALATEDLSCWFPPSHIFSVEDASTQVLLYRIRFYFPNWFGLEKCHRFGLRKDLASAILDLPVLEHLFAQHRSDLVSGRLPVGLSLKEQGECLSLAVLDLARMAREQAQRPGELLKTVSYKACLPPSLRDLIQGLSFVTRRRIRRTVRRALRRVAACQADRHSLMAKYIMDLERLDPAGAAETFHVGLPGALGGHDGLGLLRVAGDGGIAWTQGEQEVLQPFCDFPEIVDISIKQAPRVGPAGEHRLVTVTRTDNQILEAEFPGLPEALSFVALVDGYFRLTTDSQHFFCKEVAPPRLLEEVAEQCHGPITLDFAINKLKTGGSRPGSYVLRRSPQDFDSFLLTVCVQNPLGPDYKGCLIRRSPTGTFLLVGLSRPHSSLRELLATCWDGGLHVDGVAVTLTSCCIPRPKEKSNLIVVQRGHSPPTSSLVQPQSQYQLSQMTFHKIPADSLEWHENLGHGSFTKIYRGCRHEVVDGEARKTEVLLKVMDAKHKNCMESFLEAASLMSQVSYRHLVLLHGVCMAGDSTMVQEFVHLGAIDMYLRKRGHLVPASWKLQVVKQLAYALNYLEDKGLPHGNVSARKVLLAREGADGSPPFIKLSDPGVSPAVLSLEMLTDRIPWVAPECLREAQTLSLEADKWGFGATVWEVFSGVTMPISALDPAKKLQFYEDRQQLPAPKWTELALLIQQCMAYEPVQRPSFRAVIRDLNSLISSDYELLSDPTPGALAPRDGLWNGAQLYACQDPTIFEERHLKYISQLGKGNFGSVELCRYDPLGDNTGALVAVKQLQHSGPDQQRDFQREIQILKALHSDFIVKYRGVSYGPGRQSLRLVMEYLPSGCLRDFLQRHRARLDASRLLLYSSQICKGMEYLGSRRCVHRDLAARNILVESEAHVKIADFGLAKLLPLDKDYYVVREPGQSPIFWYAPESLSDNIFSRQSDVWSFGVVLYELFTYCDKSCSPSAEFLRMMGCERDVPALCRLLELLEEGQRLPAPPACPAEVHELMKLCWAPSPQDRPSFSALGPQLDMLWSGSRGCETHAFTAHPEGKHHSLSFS
Description: as §1, §2

T1 sequence (P29597 whole entry): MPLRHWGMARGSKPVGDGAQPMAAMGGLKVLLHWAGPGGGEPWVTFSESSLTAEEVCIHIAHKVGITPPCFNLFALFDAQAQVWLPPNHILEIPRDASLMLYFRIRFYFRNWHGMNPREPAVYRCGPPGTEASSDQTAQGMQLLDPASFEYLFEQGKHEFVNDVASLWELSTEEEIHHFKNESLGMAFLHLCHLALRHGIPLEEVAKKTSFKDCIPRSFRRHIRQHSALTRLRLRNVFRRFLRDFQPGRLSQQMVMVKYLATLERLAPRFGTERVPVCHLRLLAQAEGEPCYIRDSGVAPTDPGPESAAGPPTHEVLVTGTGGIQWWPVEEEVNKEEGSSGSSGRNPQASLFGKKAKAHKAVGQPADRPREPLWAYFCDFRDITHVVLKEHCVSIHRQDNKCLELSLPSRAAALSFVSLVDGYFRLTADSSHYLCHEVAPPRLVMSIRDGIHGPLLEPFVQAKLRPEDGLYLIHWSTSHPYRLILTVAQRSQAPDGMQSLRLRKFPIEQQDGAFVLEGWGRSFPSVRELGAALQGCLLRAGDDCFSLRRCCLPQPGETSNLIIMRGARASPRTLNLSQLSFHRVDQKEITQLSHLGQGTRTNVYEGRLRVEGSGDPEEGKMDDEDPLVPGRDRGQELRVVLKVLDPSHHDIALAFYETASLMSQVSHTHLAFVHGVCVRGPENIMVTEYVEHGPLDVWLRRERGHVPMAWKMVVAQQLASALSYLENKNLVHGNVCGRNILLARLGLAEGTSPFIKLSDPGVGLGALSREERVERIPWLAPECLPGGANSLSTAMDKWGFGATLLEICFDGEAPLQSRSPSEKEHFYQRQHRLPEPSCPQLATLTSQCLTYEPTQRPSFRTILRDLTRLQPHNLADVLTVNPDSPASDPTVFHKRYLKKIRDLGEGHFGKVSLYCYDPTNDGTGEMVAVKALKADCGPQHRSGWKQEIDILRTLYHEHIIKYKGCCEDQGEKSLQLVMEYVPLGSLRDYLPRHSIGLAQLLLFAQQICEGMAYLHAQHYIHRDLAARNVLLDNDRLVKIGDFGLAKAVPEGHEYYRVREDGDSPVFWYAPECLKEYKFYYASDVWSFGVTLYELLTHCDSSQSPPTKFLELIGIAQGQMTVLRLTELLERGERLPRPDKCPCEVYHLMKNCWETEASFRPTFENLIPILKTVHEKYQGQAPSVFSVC

## COCCn1ccc2c(Nc3cc[nH]n3)nc(S(=O)(=O)c3ccc(F)cc3)nc21 [Example 12, 2-(4-fluorophenylsulfonyl)-7-(2-methoxyethyl)-N-(1H-pyrazol-3-yl)-7H-pyrrolo[2,3-d]pyrimidin-4-amine]
TYK2
  pKd: ≥ 8.00
[1]
  pIC50: ≥ 7.00
JAK2
  pKd: ≥ 9.00
JAK3
  pKd: ≥ 8.00

## COc1nc2nc(C(F)(F)c3ccc(F)cc3)nc(Nc3cc(C)[nH]n3)c2s1 [Example 39, 5-(difluoro(4-fluorophenyl)methyl)-2-methoxy-N-(5-methyl-1H-pyrazol-3-yl)thiazolo[4,5-d]pyrimidin-7-amine]
TYK2
  pKd: ≥ 8.00
[1]
  pIC50: 6.30 to 7.00
JAK2
  pKd: 8.00 to 9.00
JAK3
  pKd: 7.00 to 8.00

## Cc1cc(Nc2nc(C(F)(F)c3ccc(F)cc3)nc3nc(N4CCCC4)sc23)n[nH]1 [Example 36, 5-(difluoro(4-fluorophenyl)methyl)-N-(5-methyl-1H-pyrazol-3-yl)-2-(pyrrolidin-1-yl)thiazolo[4,5-d]pyrimidin-7-amine]
TYK2
  pKd: ≥ 8.00
[1]
  pIC50: 6.30 to 7.00
JAK2
  pKd: ≥ 9.00
JAK3
  pKd: 7.00 to 8.00

## CNc1nc2nc(C(F)(F)c3ccc(F)cc3)nc(Nc3cc(C)[nH]n3)c2s1 [Example 42, 5-(difluoro(4-fluorophenyl)methyl)-N2-methyl-N7-(5-methyl-1H-pyrazol-3-yl)thiazolo[4,5-d]pyrimidine-2,7-diamine]
TYK2
  pKd: ≥ 8.00
[1]
  pIC50: 6.30 to 7.00
JAK2
  pKd: 8.00 to 9.00
JAK3
  pKd: ≥ 8.00

## Cc1cc(Nc2nc(C(F)(F)c3ccc(F)cn3)nc3nn(C4CCCC4)cc23)n[nH]1 [Example 44, 2-cyclopentyl-6-(difluoro(5-fluoropyridin-2-yl)methyl)-N-(5-methyl-1H-pyrazol-3-yl)-2H-pyrazolo[3,4-d]pyrimidin-4-amine]
TYK2
  pKd: ≥ 8.00
[1]
  pIC50: ≥ 7.00
JAK2
  pKd: ≥ 9.00
JAK3
  pKd: ≥ 8.00

## [O-][S+](c1ccc(F)cc1)c1nc(Nc2cc[nH]n2)c2cc[nH]c2n1 (racemic) [Example 1, (R,S)-2-(4-fluorophenylsulfinyl)-N-(1H-pyrazol-3-yl)-7H-pyrrolo[2,3-d]pyrimidin-4-amine]
TYK2
  pKd: ≥ 8.00
[1]
  pIC50: ≥ 7.00
JAK2
  pKd: ≥ 9.00
JAK3
  pKd: 7.00 to 8.00

## Cc1cc(Nc2nc(S(=O)(=O)c3ccc(F)cc3)nc3c2ccn3C)n[nH]1 [Example 9, 2-(4-fluorophenylsulfonyl)-7-methyl-N-(5-methyl-1H-pyrazol-3-yl)-7H-pyrrolo[2,3-d]pyrimidin-4-amine]
TYK2
  pKd: ≥ 8.00
[1]
  pIC50: ≥ 7.00
JAK2
  pKd: ≥ 9.00
JAK3
  pKd: ≥ 8.00

## O=S(=O)(c1ccc(F)cc1)c1nc(Nc2cc[nH]n2)c2cc[nH]c2n1 [Example 3, 2-(4-fluorophenylsulfonyl)-N-(1H-pyrazol-3-yl)-7H-pyrrolo[2,3-d]pyrimidin-4-amine]
TYK2
  pKd: ≥ 8.00
[1]
  pIC50: ≥ 7.00
JAK2
  pKd: ≥ 9.00
JAK3
  pKd: ≥ 8.00

## CCn1ccc2c(Nc3cc(OC)[nH]n3)nc(S(=O)(=O)c3ccc(F)cc3)nc21 [Example 14, 7-ethyl-2-(4-fluorophenylsulfonyl)-N-(5-methoxy-1H-pyrazol-3-yl)-7H-pyrrolo[2,3-d]pyrimidin-4-amine]
TYK2
  pKd: ≥ 8.00
[1]
  pIC50: ≥ 7.00
JAK2
  pKd: ≥ 9.00
JAK3
  pKd: ≥ 8.00

## Cc1cc(Nc2nc(S(=O)(=O)c3ccc(F)cc3)nc3c2cnn3C(C)(C)C)n[nH]1 [Example 25, 1-tert-butyl-6-(4-fluorophenylsulfonyl)-N-(5-methyl-1H-pyrazol-3-yl)-1H-pyrazolo[3,4-d]pyrimidin-4-amine]
TYK2
  pKd: ≥ 8.00
[1]
  pIC50: 6.30 to 7.00
JAK2
  pKd: 8.00 to 9.00
JAK3
  pKd: < 7.00

## Cc1cc(Nc2nc(S(=O)(=O)c3ccc(F)cc3)nc3c2cnn3C2CCOCC2)n[nH]1 [Example 28, 6-(4-fluorophenylsulfonyl)-N-(5-methyl-1H-pyrazol-3-yl)-1-(tetrahydro-2H-pyran-4-yl)-1H-pyrazolo[3,4-d]pyrimidin-4-amine]
TYK2
  pKd: ≥ 8.00
[1]
  pIC50: 6.30 to 7.00
JAK2
  pKd: ≥ 9.00
JAK3
  pKd: 7.00 to 8.00

## CN(C)C(=O)Cn1ccc2c(Nc3cc[nH]n3)nc(S(=O)(=O)c3ccc(F)cc3)nc21 [Example 16, 2-(4-(1H-pyrazol-3-ylamino)-2-(4-fluorophenylsulfonyl)-7H-pyrrolo[2,3-d]pyrimidin-7-yl)-N,N-dimethylacetamide]
TYK2
  pKd: ≥ 8.00
[1]
  pIC50: 6.30 to 7.00
JAK2
  pKd: ≥ 9.00
JAK3
  pKd: ≥ 8.00

## Cc1cc(Nc2nc(S(=O)(=O)c3ccc(F)cc3)nc3[nH]ncc23)n[nH]1 [Example 27, 6-(4-fluorophenylsulfonyl)-N-(5-methyl-1H-pyrazol-3-yl)-1H-pyrazolo[3,4-d]pyrimidin-4-amine]
TYK2
  pKd: ≥ 8.00
[1]
  pIC50: 6.30 to 7.00
JAK2
  pKd: ≥ 9.00
JAK3
  pKd: 7.00 to 8.00

## Cc1cc(Nc2nc(C(F)(F)c3ccc(F)cc3)nc3nc(N4CCOCC4)sc23)n[nH]1 [Example 37, 5-(difluoro(4-fluorophenyl)methyl)-N-(5-methyl-1H-pyrazol-3-yl)-2-morpholinothiazolo[4,5-d]pyrimidin-7-amine]
TYK2
  pKd: ≥ 8.00
[1]
  pIC50: 6.30 to 7.00
JAK2
  pKd: ≥ 9.00
JAK3
  pKd: ≥ 8.00

## Cc1cc(Nc2nc(S(=O)(=O)c3ccc(F)cc3)nc3c2cnn3CCO)n[nH]1 [Example 23, 2-(6-(4-fluorophenylsulfonyl)-4-(5-methyl-1H-pyrazol-3-ylamino)-1H-pyrazolo[3,4-d]pyrimidin-1-yl)ethanol]
TYK2
  pKd: ≥ 8.00
[1]
  pIC50: 6.30 to 7.00
JAK2
  pKd: ≥ 9.00
JAK3
  pKd: 7.00 to 8.00

## Cc1cc(Nc2nc(C(F)(F)c3ccc(F)cc3)nc3c2cnn3C)n[nH]1 [Example 26, 6-(difluoro(4-fluorophenyl)methyl)-1-methyl-N-(5-methyl-1H-pyrazol-3-yl)-1H-pyrazolo[3,4-d]pyrimidin-4-amine]
TYK2
  pKd: ≥ 8.00
[1]
  pIC50: 6.30 to 7.00
JAK2
  pKd: ≥ 9.00
JAK3
  pKd: 7.00 to 8.00
